Tests used:
Acetylcholinesterase [1] = biological target: T1, Acetylcholinesterase (Torpedo californica, UniProt P04058); assay: In vitro binding affinity was determined against acetylcholinesterase from torpedo californica; set-up: species or system Tetronarce californica
Acetylcholinesterase [2] = biological target: T1, Acetylcholinesterase; assay: In vitro anticholinesterase activity was determined against acetylcholinesterase from Torpedo californica; set-up: species or system Tetronarce californica

T1 sequence (P04058 whole entry): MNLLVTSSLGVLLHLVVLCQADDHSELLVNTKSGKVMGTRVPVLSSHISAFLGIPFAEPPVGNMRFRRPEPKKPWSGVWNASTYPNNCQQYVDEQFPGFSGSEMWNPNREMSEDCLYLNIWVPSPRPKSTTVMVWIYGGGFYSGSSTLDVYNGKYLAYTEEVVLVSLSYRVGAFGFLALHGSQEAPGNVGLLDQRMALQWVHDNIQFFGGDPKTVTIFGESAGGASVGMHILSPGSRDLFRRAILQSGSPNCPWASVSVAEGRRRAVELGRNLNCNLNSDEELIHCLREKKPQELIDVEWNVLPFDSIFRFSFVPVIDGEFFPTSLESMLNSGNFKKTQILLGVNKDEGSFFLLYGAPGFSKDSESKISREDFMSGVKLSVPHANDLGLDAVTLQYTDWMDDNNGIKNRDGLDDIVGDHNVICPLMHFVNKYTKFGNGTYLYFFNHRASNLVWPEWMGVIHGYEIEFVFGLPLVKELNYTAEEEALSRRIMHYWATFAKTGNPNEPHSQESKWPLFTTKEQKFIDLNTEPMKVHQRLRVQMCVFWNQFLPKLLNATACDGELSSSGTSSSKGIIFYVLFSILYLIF

Row | Compound | Ki (Acetylcholinesterase [1]) [µM] | IC50 (Acetylcholinesterase [2]) [µM]
1 | C/C=C(\C)C(=O)N[C@H]1CC[C@@]2(C)C(=CC[C@H]3C4=CC[C@H]([C@H](C)N(C)C)[C@@]4(C)CC[C@@H]32)C1=O | 2.65 | –
2 | C/C=C(\C)C(=O)N[C@@H]1C=C2CC[C@@H]3[C@H](CC[C@]4(C)C([C@H](C)N(C)C)=CC[C@@H]34)[C@@]2(C)C[C@H]1O | – | 185
3 | CC(=O)O[C@H]1[C@@H](NC(=O)C=C(C)C)CC[C@]2(C)[C@H]3CC[C@]4(C)[C@@H]([C@H](C)N(C)C)CC[C@H]4[C@@H]3CC[C@@H]12 | 17.6 | 8.5
4 | CN[C@H]1CC[C@@]2(C)[C@@H](CC[C@@H]3[C@@H]2CC[C@]2(C)[C@@H]([C@H](C)N(C)C(C)=O)CC[C@@H]32)C1 | 216 | 204
5 | C[C@@H]([C@H]1CC[C@H]2[C@@H]3CC[C@H]4C(=O)C(NC(=O)c5ccccc5)=CC[C@]4(C)[C@H]3CC[C@]12C)N(C)C | 3.03 | 5.2
6 | C/C=C(\C)C(=O)N[C@@H]1[C@H](OC(C)=O)[C@@H]2CC[C@H]3C4=CC[C@H]([C@H](C)N(C)C)[C@@]4(C)CC[C@@H]3[C@@]2(C)C[C@@H]1O | 134 | 61.3
7 | C[C@@H]([C@H]1CC[C@H]2[C@@H]3CC[C@H]4C[C@@H](NC(=O)c5ccccc5)[C@@H](O)C[C@]4(C)[C@H]3CC[C@]12C)N(C)C | – | 78.2
8 | C/C=C(\C)C(=O)N[C@H]1CC[C@@]2(C)C(=CC[C@H]3[C@@H]4CC[C@H]([C@H](C)N(C)C)[C@@]4(C)CC[C@@H]32)C1=O | 5.4 | 7.1
9 | C/C(=C\C(=O)N(C)[C@H]1CC[C@@]2(C)[C@@H](CC[C@@H]3[C@@H]2CC[C@]2(C)[C@@H]([C@H](C)N(C)C)CC[C@@H]32)C1)C(C)C | 4.1 | –
10 | C/C(=C\C(=O)N[C@H]1CC[C@@]2(C)[C@@H](CC[C@@H]3[C@@H]2CC[C@]2(C)[C@@H]([C@H](C)N(C)C)CC[C@@H]32)C1)C(C)C | 9.05 | 50.6
11 | CC(=O)O[C@H]1[C@@H](NC(=O)c2ccccc2)[C@@H](O)C[C@]2(C)[C@H]3CC[C@]4(C)[C@@H]([C@H](C)N(C)C)CC[C@H]4[C@@H]3CC[C@@H]12 | 126 | 228
12 | C/C=C(\C)C(=O)N[C@@H]1[C@H](OC(C)=O)[C@@H]2CC[C@@H]3[C@H](CC[C@]4(C)[C@@H]([C@H](C)N(C)C)CC[C@@H]34)[C@@]2(C)C[C@@H]1O | – | 182
13 | CC(=O)N[C@H]1CC[C@@]2(C)[C@@H](CC[C@@H]3[C@@H]2CC[C@]2(C)[C@@H]([C@H](C)N(C)C)CC[C@@H]32)C1 | 90.3 | 69.9
14 | C/C(=C\C(=O)N(C)[C@H]1CC[C@@]2(C)[C@@H](CC[C@@H]3[C@@H]2CC[C@]2(C)C([C@H](C)N(C)C)=CC[C@@H]32)C1)C(C)C | 10.7 | 6.2
15 | C[C@@H]([C@H]1CC[C@H]2[C@@H]3CC[C@H]4C[C@@H](N(C)C(=O)/C=C/c5ccccc5)CC[C@]4(C)[C@H]3CC[C@]12C)N(C)C [SALIGCINNAMIDE] | 12.2 | 19.9
